Reference: PMC9189845, “Structure–Activity Relationships of 8-Hydroxyquinoline-Derived Mannich Bases with Tertiary Amines Targeting Multidrug-Resistant Cancer” (Journal of Medicinal Chemistry, 2022)
Where a name gives a salt, the structure may show the parent alone. Read-outs that look alike come from different tables or passages of the source.

Key:
[1] = tested on: MES-SA cells; experiment: PrestoBlue viability assay, MES-SA cells; details: for pIC50 value MES-SA: MES-SA cells, without TQ
[2] = tested on: MES-SA/Dx5 cells; experiment: PrestoBlue viability assay, MES-SA/Dx5 cells (MDR, P-gp positive); details: for SR: selectivity ratio MES-SA vs MES-SA/Dx5, without TQ; for SR (MES-SA_TQ / Dx5_TQ) (values in parentheses): presence of 1 μM TQ; for SR_TQ: selectivity ratio MES-SA vs MES-SA/Dx5, with TQ; for pIC50 value MES-SA/Dx5: MES-SA/Dx5 cells, without TQ
[3] = Homo sapiens, MES-SA, 72 h, read-out: IC50 / μM MES-SA, absence of TQ, 72 h incubation
[4] = Homo sapiens, MES-SA/Dx5, 72 h, read-out: IC50 / μM MES-SA/Dx5, absence of TQ, 72 h incubation
[5] = Homo sapiens, MES-SA, read-out: pIC50 value MES-SA, MES-SA cells, without TQ (converted)
[6] = Homo sapiens, MES-SA/Dx5, read-out: pIC50 value MES-SA/Dx5, MES-SA/Dx5 cells, without TQ (converted)
[7] = Homo sapiens, MES-SA, read-out: IC50 / μM MES-SA (values in parentheses), presence of 1 μM P-gp inhibitor tariquidar (TQ)
[8] = Homo sapiens, MES-SA, read-out: pIC50 value MES-SA+TQ, MES-SA cells, with TQ (converted)
[9] = Homo sapiens, MES-SA/Dx5, read-out: IC50 / μM MES-SA/Dx5 (values in parentheses), presence of 1 μM P-gp inhibitor tariquidar (TQ)
[10] = fraction of IC50 in P-gp negative vs positive cells
[11] = read-out: IC50 / μM MES-SA, absence of TQ, 72 h incubation
[12] = read-out: IC50 / μM MES-SA/Dx5, absence of TQ, 72 h incubation
[13] = Homo sapiens, MES-SA/Dx5, read-out: pIC50 value MES-SA/Dx5 + TQ, MES-SA/Dx5 cells, with TQ (converted)

| SMILES | IC50 [1, 3] [µM] | IC50 [2, 4] [µM] | IC50 [1, 5] [µM] | IC50 [2, 6] [µM] | SR [2] | SR_TQ [2] | other results |
| --- | --- | --- | --- | --- | --- | --- | --- |
| O=C(c1ccccc1O)N1CCOCC1 [Compound 67] | > 100 | > 100 | – | – | – | – | – |
| Cc1ccc(O)c(C(=O)N2CCOCC2)c1 [Compound 68] | > 100 | > 100 | 380 | – | – | – | – |
| Oc1ccc2ccccc2c1CN1CCOCC1 [Compound 69] | > 100 | > 100 | – | – | – | – | – |
| COc1ccc(O)c(CN2CCN(C)CC2)c1 [Compound 73] | > 100 | > 100 | – | – | – | – | – |
| CCN1CCN(Cc2cc(OC)ccc2O)CC1 [Compound 74] | > 100 | > 100 | – | – | – | – | – |
| CN1CCN(Cc2c(O)ccc3ccccc23)CC1 [Compound 75] | > 100 | > 100 | – | – | – | – | – |
| O=C1CCCN1Cc1cc(Cl)c2cccnc2c1O [Compound 76] | 10.2 ± 0.25 | 12.2 ± 0.55 | 10.2 | 12 | 0.84 | – | – |
| CC1CCCCN1Cc1cc(Cl)c2cccnc2c1O (stereo not drawn) [Compound 77] | 2.57 ± 0.1 | 0.34 ± 0.03 | 2.57 | 0.339 | 7.57 | 1.51 | IC50 [1, 7]: 2.35 µM; IC50 [1, 8]: 2.34 µM; IC50 [2, 9]: 1.55 µM; SR (MES-SA_TQ / Dx5_TQ) (values in parentheses) [2, 10]: 1.51 |
| CCOC(=O)C1CCCN(Cc2cc(Cl)c3cccnc3c2O)C1 (stereo not drawn) [Compound 78] | 2.52 ± 0.22 | 0.43 ± 0.01 | – | – | – | – | IC50 [1, 7]: 2.14 µM; IC50 [2, 9]: 1.18 µM; SR (MES-SA / MES-SA/Dx5) ([2]; fraction of IC50 in P-gp negative vs positive cells, absence of TQ): 5.91; SR (MES-SA_TQ / Dx5_TQ) (values in parentheses) [2, 10]: 1.81 |
| Oc1c(CN2CCc3ccccc3C2)cc(Cl)c2cccnc12 [Compound 80] | 1.96 ± 0.22 | 0.27 ± 0.06 | 1.95 | 0.263 | 7.21 | 1.72 | IC50 [1, 7]: 1.81 µM; IC50 [1, 8]: 1.78 µM; IC50 [2, 9]: 1.05 µM; SR (MES-SA_TQ / Dx5_TQ) (values in parentheses) [2, 10]: 1.72 |
| Oc1cc2c(cc1O)CN(Cc1ccc3cccnc3c1O)CC2 [Compound 82, 2-((8-Hydroxy-quinolin-7-yl)methyl)-1,2,3,4-tetrahydroisoquinoline-6,7-diol Hydrochloride] | 3.42 ± 0.28 | 3.61 ± 0.51 | 3.39 | 3.55 | 0.95 | – | – |
| Oc1c(C(c2ccncc2)N2CCCC2)ccc2cccnc12 (stereo not drawn) [Compound 86] | 5.99 ± 0.88 | 3.66 ± 0.45 | 5.89 | 3.63 | 1.64 | – | – |
| Oc1c(C(c2ccc(Cl)cc2)N2CCCC2)ccc2cccnc12 (stereo not drawn) [Compound 87] | – | – | – | – | 3 | 1.35 | pIC50 value MES-SA [1]: 4.71; IC50 [1, 11]: 19.7 ± 2.25 µM; pIC50 value MES-SA/Dx5 [2]: 5.18; IC50 [2, 12]: 6.58 ± 0.53 µM |
| Cc1ccc(C(c2cc(Cl)c3cccnc3c2O)N2CCCC2)cc1 (stereo not drawn) [Compound 91] | 13.2 ± 3.09 | 6.06 ± 2.21 | 12.9 | 5.62 | 2.18 | 3.8 | IC50 [1, 8]: 8.91 µM; IC50 [2, 13]: 2.34 µM |
| Oc1c(C(c2ccncc2)N2CCCCC2)ccc2cccnc12 (stereo not drawn) [Compound 93] | – | – | – | – | 1.93 | 1.1 | pIC50 value MES-SA [1]: 4.81; IC50 [1, 11]: 16.2 ± 4.33 µM; pIC50 value MES-SA/Dx5 [2]: 5.08; IC50 [2, 12]: 8.39 ± 1.09 µM |
| Oc1c(C(c2cccs2)N2CCCCC2)ccc2cccnc12 (stereo not drawn) [Compound 94] | 8.88 ± 0.93 | 11.6 ± 0.94 | 8.91 | 11.5 | 0.76 | – | – |
| Oc1c(C(c2ccccc2Cl)N2CCCCC2)ccc2cccnc12 (stereo not drawn) [Compound 95] | – | – | – | – | 1.85 | 2.75 | pIC50 value MES-SA [1]: 4.77; IC50 [1, 11]: 17.5 ± 4.45 µM; pIC50 value MES-SA/Dx5 [2]: 5.04; IC50 [2, 12]: 9.45 ± 2.11 µM |
| CC1CCN(C(c2ccncc2)c2ccc3cccnc3c2O)CC1 (stereo not drawn) [Compound 100] | – | – | – | – | 2.74 | 4.37 | pIC50 value MES-SA [1]: 4.78; IC50 [1, 11]: 17.1 ± 3.89 µM; pIC50 value MES-SA/Dx5 [2]: 5.21; IC50 [2, 12]: 6.24 ± 1.17 µM |
| Oc1c(C(c2ccccc2)N2CCOCC2)ccc2cccnc12 (stereo not drawn) [Compound 102] | 21.4 ± 1.01 | 11.7 ± 1.15 | 21.4 | 11.5 | 1.84 | – | – |
| Oc1c(C(c2ccccn2)N2CCOCC2)ccc2cccnc12 (stereo not drawn) [Compound 103] | 23.6 ± 3.13 | 14.6 ± 2.97 | 23.4 | 14.1 | 1.62 | – | – |
| Oc1c(C(c2ccncc2)N2CCOCC2)ccc2cccnc12 (stereo not drawn) [Compound 104] | 15.2 ± 2.74 | 7.14 ± 1.26 | 14.8 | 7.08 | 2.12 | 1.45 | IC50 [1, 8]: 21.9 µM; IC50 [2, 13]: 15.1 µM |
| Oc1c(C(c2ccccc2Cl)N2CCOCC2)ccc2cccnc12 (stereo not drawn) [Compound 105] | – | – | – | – | 1.13 | – | pIC50 value MES-SA [1]: 4.73; IC50 [1, 11]: 18.45 ± 0.14 µM; pIC50 value MES-SA/Dx5 [2]: 4.79; IC50 [2, 12]: 16.4 ± 1.02 µM |
